Measurements reported in US8952024B2, “Herbicidal pyrimidone derivatives” (E I du Pont de Nemours and Company, priority 2009, dated 2015).

What was measured:
Assay in all cases: Test D pre-/postemergence plant response
Type in all cases: in vivo
[1] = tested on: Russian thistle (Salsola kali)
Summary of the method: (§1)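 Both preemergence and postemergence treatments were made at the same time, with the compound in a non-phytotoxic, surfactant-containing solvent mixture. Plants grew in a greenhouse for 14–21 days before visual evaluation, scored from 0 (no effect) to 100 (complete control).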

[2] = tested on: Surinam grass (Brachiaria decumbens)
Summary of the method: as §1

[3] = tested on: barnyardgrass (Echinochloa crus-galli)
Summary of the method: as §1

[4] = tested on: bluegrass (annual bluegrass, Poa annua)
Summary of the method: as §1

[5] = tested on: dayflower (Virginia (VA) dayflower, Commelina virginica)
Summary of the method: as §1

[6] = tested on: green foxtail (Setaria viridis)
Summary of the method: as §1

[7] = tested on: groundsel (common groundsel, Senecio vulgaris); settings: Postemergence
Summary of the method: as §1

[8] = tested on: guineagrass (Panicum maximum)
Summary of the method: as §1

[9] = tested on: itchgrass (Rottboellia cochinchinensis)
Summary of the method: as §1

[10] = tested on: johnsongrass (Sorghum halepense)
Summary of the method: as §1

kochia (Kochia scoparia) = tested on: kochia (Kochia scoparia)
Summary of the method: as §1

[11] = tested on: large crabgrass (Digitaria sanguinalis)
Summary of the method: as §1

[12] = tested on: mallow (common mallow, Malva sylvestris)
Summary of the method: as §1

[13] = tested on: morningglory (pitted morningglory, Ipomoea lacunosa)
Summary of the method: as §1

[14] = tested on: purslane (common purslane, Portulaca oleracea)
Summary of the method: as §1

[15] = tested on: ragweed (common ragweed, Ambrosia elatior)
Summary of the method: as §1

[16] = tested on: signalgrass (broadleaf signalgrass, Brachiaria platyphylla)
Summary of the method: as §1

[17] = tested on: spanishneedles (Bidens bipinnata)
Summary of the method: as §1

[18] = Postemergence, 125 g ai/ha, scale 0 to 100 (0 no effect, 100 complete control)
[19] = Preemergence, 31 g ai/ha, scale 0 to 100 (0 no effect, 100 complete control)
[20] = Preemergence, 125 g ai/ha, scale 0 to 100
[21] = Postemergence, 31 g ai/ha, scale 0 to 100
[22] = Postemergence, 62 g ai/ha, scale 0 to 100 (0 no effect, 100 complete control)
[23] = Postemergence, 16 g ai/ha, scale 0 to 100
[24] = Preemergence, 16 g ai/ha, scale 0 to 100, 0 no effect, 100 complete control
[25] = Postemergence, 31 g ai/ha, scale 0 to 100 (0 no effect, 100 complete control)
[26] = Preemergence, 62 g ai/ha, scale 0 to 100

Compound: O=C1CCCC(O)=C1C(=O)c1cnc(-c2ccccc2)n(CC2CCCO2)c1=O (stereo not shown) [Compound 59]
- Plant response rating, Russian Thistle [1, 18]: 65
- Plant response rating, Russian Thistle [1, 19]: 90
- Plant response rating, Russian Thistle [1, 20]: 100
- Plant response rating, Surinam Grass [2, 21]: 35
- Plant response rating, Surinam Grass [2, 22]: 50
- Plant response rating, Surinam Grass [2, 18]: 60
- Plant response rating, Surinam Grass [2, 23]: 30
- Plant response rating, Surinam Grass [2, 24]: 5
- Plant response rating, Surinam Grass [2, 19]: 90
- Plant response rating, Surinam Grass [2, 20]: 100
- Plant response rating, Barnyardgrass [3, 25]: 60
- Plant response rating, Barnyardgrass [3, 22]: 60
- Plant response rating, Barnyardgrass [3, 18]: 75
- Plant response rating, Barnyardgrass [3, 23]: 40
- Plant response rating, Barnyardgrass [3, 24]: 0
- Plant response rating, Barnyardgrass [3, 19]: 0
- Plant response rating, Barnyardgrass [3, 26]: 0
- Plant response rating, Barnyardgrass [3, 20]: 10
- Plant response rating, Bluegrass [4, 25]: 0
- Plant response rating, Bluegrass [4, 22]: 0
- Plant response rating, Bluegrass [4, 18]: 5
- Plant response rating, Bluegrass [4, 23]: 0
- Plant response rating, Bluegrass [4, 24]: 0
- Plant response rating, Bluegrass [4, 19]: 0
- Plant response rating, Bluegrass [4, 26]: 15
- Plant response rating, Bluegrass [4, 20]: 30
- Plant response rating, Dayflower, VA [5, 22]: 60
- Plant response rating, Dayflower, VA [5, 23]: 25
- Plant response rating, Dayflower, VA [5, 19]: 0
- Plant response rating, Dayflower, VA [5, 26]: 35
- Plant response rating, Dayflower, VA [5, 20]: 35
- Plant response rating, Foxtail, Green [6, 21]: 5
- Plant response rating, Foxtail, Green [6, 22]: 20
- Plant response rating, Foxtail, Green [6, 18]: 35
- Plant response rating, Foxtail, Green [6, 23]: 0
- Plant response rating, Foxtail, Green [6, 24]: 0
- Plant response rating, Foxtail, Green [6, 19]: 0
- Plant response rating, Foxtail, Green [6, 26]: 0
- Plant response rating, Foxtail, Green [6, 20]: 0
- Plant response rating, Groundsel ([7]; 31 g ai/ha, scale 0 to 100): 90
- Plant response rating, Groundsel ([7]; 62 g ai/ha, scale 0 to 100 (0 no effect, 100 complete control)): 100
- Plant response rating, Groundsel ([7]; 125 g ai/ha, scale 0 to 100 (0 no effect, 100 complete control)): 100
- Plant response rating, Groundsel ([7]; 16 g ai/ha, scale 0 to 100): 70
- Plant response rating, Guineagrass [8, 21]: 10
- Plant response rating, Guineagrass [8, 22]: 20
- Plant response rating, Guineagrass [8, 18]: 20
- Plant response rating, Guineagrass [8, 23]: 10
- Plant response rating, Guineagrass [8, 24]: 0
- Plant response rating, Guineagrass [8, 19]: 0
- Plant response rating, Guineagrass [8, 26]: 0
- Plant response rating, Guineagrass [8, 20]: 0
- Plant response rating, Itchgrass [9, 21]: 15
- Plant response rating, Itchgrass [9, 22]: 15
- Plant response rating, Itchgrass [9, 18]: 75
- Plant response rating, Itchgrass [9, 23]: 0
- Plant response rating, Itchgrass [9, 24]: 0
- Plant response rating, Itchgrass [9, 19]: 0
- Plant response rating, Itchgrass [9, 26]: 0
- Plant response rating, Itchgrass [9, 20]: 20
- Plant response rating, Johnsongrass [10, 21]: 35
- Plant response rating, Johnsongrass [10, 22]: 40
- Plant response rating, Johnsongrass [10, 18]: 60
- Plant response rating, Johnsongrass [10, 23]: 30
- Plant response rating, Johnsongrass [10, 24]: 0
- Plant response rating, Johnsongrass [10, 19]: 0
- Plant response rating, Johnsongrass [10, 26]: 10
- Plant response rating, Johnsongrass [10, 20]: 35
- Plant response rating, Kochia (kochia (Kochia scoparia); [21]): 5
- Plant response rating, Kochia (kochia (Kochia scoparia); [22]): 20
- Plant response rating, Kochia (kochia (Kochia scoparia); [18]): 50
- Plant response rating, Kochia (kochia (Kochia scoparia); [23]): 5
- Plant response rating, Kochia (kochia (Kochia scoparia); [24]): 0
- Plant response rating, Kochia (kochia (Kochia scoparia); [19]): 0
- Plant response rating, Kochia (kochia (Kochia scoparia); [26]): 0
- Plant response rating, Kochia (kochia (Kochia scoparia); [20]): 0
- Plant response rating, Crabgrass, Large [11, 21]: 35
- Plant response rating, Crabgrass, Large [11, 22]: 50
- Plant response rating, Crabgrass, Large [11, 18]: 70
- Plant response rating, Crabgrass, Large [11, 23]: 35
- Plant response rating, Crabgrass, Large [11, 24]: 0
- Plant response rating, Crabgrass, Large [11, 19]: 35
- Plant response rating, Crabgrass, Large [11, 26]: 35
- Plant response rating, Crabgrass, Large [11, 20]: 65
- Plant response rating, Mallow [12, 21]: 5
- Plant response rating, Mallow [12, 22]: 5
- Plant response rating, Mallow [12, 18]: 40
- Plant response rating, Mallow [12, 23]: 0
- Plant response rating, Mallow [12, 24]: 0
- Plant response rating, Mallow [12, 19]: 65
- Plant response rating, Mallow [12, 26]: 65
- Plant response rating, Mallow [12, 20]: 65
- Plant response rating, Morningglory [13, 21]: 40
- Plant response rating, Morningglory [13, 22]: 50
- Plant response rating, Morningglory [13, 18]: 50
- Plant response rating, Morningglory [13, 23]: 0
- Plant response rating, Morningglory [13, 24]: 0
- Plant response rating, Morningglory [13, 19]: 0
- Plant response rating, Morningglory [13, 26]: 0
- Plant response rating, Morningglory [13, 20]: 80
- Plant response rating, Purslane [14, 21]: 35
- Plant response rating, Purslane [14, 22]: 35
- Plant response rating, Purslane [14, 18]: 50
- Plant response rating, Purslane [14, 23]: 35
- Plant response rating, Purslane [14, 24]: 65
- Plant response rating, Purslane [14, 19]: 100
- Plant response rating, Purslane [14, 26]: 100
- Plant response rating, Purslane [14, 20]: 100
- Plant response rating, Ragweed [15, 21]: 70
- Plant response rating, Ragweed [15, 18]: 80
- Plant response rating, Ragweed [15, 23]: 70
- Plant response rating, Ragweed [15, 24]: 0
- Plant response rating, Ragweed [15, 19]: 50
- Plant response rating, Ragweed [15, 20]: 100
- Plant response rating, Signalgrass [16, 21]: 5
- Plant response rating, Signalgrass [16, 22]: 10
- Plant response rating, Signalgrass [16, 18]: 20
- Plant response rating, Signalgrass [16, 23]: 5
- Plant response rating, Signalgrass [16, 24]: 0
- Plant response rating, Signalgrass [16, 19]: 0
- Plant response rating, Signalgrass [16, 20]: 5
- Plant response rating, Spanishneedles [17, 21]: 50
- Plant response rating, Spanishneedles [17, 22]: 70
- Plant response rating, Spanishneedles [17, 18]: 70
- Plant response rating, Spanishneedles [17, 23]: 30
- Plant response rating, Spanishneedles [17, 24]: 0
- Plant response rating, Spanishneedles [17, 19]: 0
- Plant response rating, Spanishneedles [17, 20]: 90
